From patent US5631394A, “Pharmaceutically active ceramide-related compounds” (The Liposome Company, Inc., priority 1995, dated 1997)
Like-named read-outs stand apart in the source and are kept apart here.

Experiments:
Assay type in all cases: cell-based
MCF7 cells = assay: sulforhodamine B cytotoxicity assay, 72 hour drug exposure, MCF7
RPMI-7666 cells [1] = assay: % survival, trypan blue exclusion assay, without serum, RPMI-7666; details: bioactive lipid dose = 20 uM, 2880 min
HT 29 cells = assay: sulforhodamine B cytotoxicity assay, 72 hour drug exposure, HT 29
CAKI 1 cells = assay: sulforhodamine B cytotoxicity assay, 72 hour drug exposure, CAKI 1
LEWIS LUNG cells = assay: sulforhodamine B cytotoxicity assay, 72 hour drug exposure, Lewis lung
P388/ADR cells = assay: sulforhodamine B cytotoxicity assay, 72 hour drug exposure, P388/ADR; details: Mus musculus
Procedure: (§1) These studies were performed using a sulforrhodamine B assay (see Monks et al., J. Natl. Cancer Inst. (U.S.) 83:757 ([…])). Compounds were dissolved in ethanol. Results from these studies, presented in the following tables, are expressed as Gl50 values, that is, concentration of a drug (micromolar) required to inhibit growth of fifty percent of the cells.

P-388 cells [2] = assay: % survival, trypan blue assay, with serum, P-388; details: bioactive lipid dose = 20 uM
C3H10T1/2 cells = assay: sulforhodamine B cytotoxicity assay, 72 hour drug exposure, C3H10T1/2; details: Mus musculus, C3H 10T1/2
Procedure: as §1

U-937 cells [3] = assay: % survival, trypan blue exclusion assay, without serum, U-937; details: bioactive lipid dose = 20 uM, 2880 min
U-937 cells [4] = assay: % survival, trypan blue assay, with serum, U-937; details: bioactive lipid dose = 20 uM
P388 cells = assay: sulforhodamine B cytotoxicity assay, 72 hour drug exposure, P388; details: Mus musculus
Procedure: as §1

SKMEL 28 cells = assay: sulforhodamine B cytotoxicity assay, 72 hour drug exposure, SKMEL 28
OVCAR 3 cells = assay: sulforhodamine B cytotoxicity assay, 72 hour drug exposure, OVCAR 3; details: Homo sapiens, OVCAR-3, 72 h
RPMI 7666 cells = assay: sulforhodamine B cytotoxicity assay, 72 hour drug exposure, RPMI 7666
Procedure: as §1

U937 cells = assay: sulforhodamine B cytotoxicity assay, 72 hour drug exposure, U937; details: Homo sapiens, U-937
Procedure: as §1

A549 cells = assay: sulforhodamine B cytotoxicity assay, 72 hour drug exposure, A549
MCF7/ADR cells = assay: sulforhodamine B cytotoxicity assay, 72 hour drug exposure, MCF7/ADR
P-388 cells [5] = assay: % survival, trypan blue exclusion assay, without serum, P-388; details: bioactive lipid dose = 20 uM, 2880 min
RPMI-7666 cells [6] = assay: % survival, trypan blue assay, with serum, RPMI-7666; details: bioactive lipid dose = 20 uM

CCCCCCCCCCCCC/C=C/[C@@H](O)[C@H](CO)NC(=O)CCCCC [C6-Ceramide, C6-ceramide, reference compound]
GI50 (MCF7 cells; Homo sapiens, MCF7, 72 h): 24.2 ± 8.5 µM
GI50 (MCF7 cells; listed as Cer-C6): 12.7 ± 0.14 µM
% Survival (by trypan blue exclusion assay) (RPMI-7666 cells [1]): 79%
GI50 (HT 29 cells; Homo sapiens, HT-29, 72 h): 4 ± 0.2 µM
GI50 (HT 29 cells; listed as Cer-C6): 4.67 ± 0.19 µM
GI50 (CAKI 1 cells; Homo sapiens, CAKI-1, 72 h): 6.04 ± 0.23 µM
GI50 (CAKI 1 cells; listed as Cer-C6): 5.88 ± 0.1 µM
GI50 (LEWIS LUNG cells; Lewis lung carcinoma, 72 h): 9.6 ± 4.4 µM
GI50 (LEWIS LUNG cells; listed as Cer-C6): 5.81 µM
GI50 (P388/ADR cells): 12.7 ± 1.7 µM
% Survival (by trypan blue assay) (P-388 cells [2]): 84.5%
GI50 (C3H10T1/2 cells): 14 ± 2.5 µM
% Survival (by trypan blue exclusion assay) (U-937 cells [3]): 82.6%
% Survival (by trypan blue assay) (U-937 cells [4]): 97%
GI50 (P388 cells): 6.24 ± 0.3 µM
GI50 (SKMEL 28 cells; Homo sapiens, SK-MEL-28, 72 h): 13.3 ± 2.51 µM
GI50 (SKMEL 28 cells; listed as Cer-C6): 11.55 ± 0.07 µM
GI50 (OVCAR 3 cells): 15.2 ± 1.77 µM
GI50 (RPMI 7666 cells): 8.5 ± 3.5 µM
GI50 (U937 cells): 7 ± 1.7 µM
GI50 (A549 cells; Homo sapiens, A549, 72 h): 12 ± 4.8 µM
GI50 (A549 cells; listed as Cer-C6): 8.08 ± 0.06 µM
GI50 (MCF7/ADR cells): 36 ± 0.88 µM
GI50 (MCF7/ADR cells; Homo sapiens, NCI/ADR-RES, 72 h): 36 ± 0.88 µM
GI50 (MCF7/ADR cells; listed as Cer-C6): 26.1 ± 0.85 µM
% Survival (by trypan blue exclusion assay) (P-388 cells [5]): 55.4%
% Survival (by trypan blue assay) (RPMI-7666 cells [6]): 89.2%
